Data taken from PMC4756048 (Clinical Pharmacokinetics, 2015).
Where two headings read alike, the source gives them in different places.

Experiments:
[1] = biological target: T1, sodium taurocholate cotransporting polypeptide (NTCP) (Homo sapiens, UniProt Q14973); test: In vitro transporter inhibition; type: in vitro ADME; conditions: data on file
T1 sequence (Q14973 1-349): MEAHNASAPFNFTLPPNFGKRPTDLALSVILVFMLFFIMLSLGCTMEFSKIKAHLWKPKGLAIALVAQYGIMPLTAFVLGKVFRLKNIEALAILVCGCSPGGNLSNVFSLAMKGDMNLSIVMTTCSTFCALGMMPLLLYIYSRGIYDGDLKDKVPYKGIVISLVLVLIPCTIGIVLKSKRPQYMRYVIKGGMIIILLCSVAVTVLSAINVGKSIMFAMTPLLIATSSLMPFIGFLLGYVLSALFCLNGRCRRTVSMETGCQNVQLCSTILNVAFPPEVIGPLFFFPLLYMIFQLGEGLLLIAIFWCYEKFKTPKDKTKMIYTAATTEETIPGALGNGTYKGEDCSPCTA

cathepsin A = biological target: T2, cathepsin A (Homo sapiens, UniProt P10619); test: In vitro cathepsin A inhibition; type: biochemical; conditions: data on file
T2 sequence (P10619 29-480): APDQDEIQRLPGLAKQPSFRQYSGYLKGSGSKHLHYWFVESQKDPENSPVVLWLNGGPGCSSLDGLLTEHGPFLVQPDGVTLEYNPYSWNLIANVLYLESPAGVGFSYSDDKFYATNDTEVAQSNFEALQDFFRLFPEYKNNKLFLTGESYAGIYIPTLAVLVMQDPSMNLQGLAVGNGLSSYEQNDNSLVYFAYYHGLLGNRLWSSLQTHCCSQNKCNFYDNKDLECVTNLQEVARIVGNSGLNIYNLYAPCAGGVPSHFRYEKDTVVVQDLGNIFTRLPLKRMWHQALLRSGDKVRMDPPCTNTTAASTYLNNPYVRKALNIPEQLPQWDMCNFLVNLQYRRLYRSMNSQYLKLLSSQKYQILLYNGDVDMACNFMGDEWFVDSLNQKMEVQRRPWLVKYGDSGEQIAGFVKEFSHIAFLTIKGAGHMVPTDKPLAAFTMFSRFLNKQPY

[2] = type: in vivo, human; conditions: data on file
[3] = cited from earlier work
plasma proteins = conditions: largely to albumin; cited from earlier work
CYP2A6 = conditions: in vitro; cited from earlier work
CYP2C8 = conditions: in vitro; cited from earlier work
CYP2D6 = conditions: in vitro; cited from earlier work
CYP2C19 = conditions: in vitro; cited from earlier work
CYP3A [4] = conditions: in vitro; cited from earlier work
OATP1B1 [5] = conditions: in vitro; cited from earlier work
MRP2 [6] = conditions: in vitro; cited from earlier work
[7] = system: bile salt export pump (BSEP); conditions: in vitro; cited from earlier work
P-gp [8] = conditions: in vitro; cited from earlier work
BCRP = conditions: in vitro; cited from earlier work
OATP1B3 [9] = conditions: in vitro; data on file; cited from earlier work
OATP1B1 [10] = conditions: in vitro; cited from earlier work; remark: listed apart in the source
OATP1B3 [11] = conditions: in vitro; cited from earlier work
MRP2 [12] = conditions: in vitro; data on file; cited from earlier work
P-gp [13] = conditions: in vitro; data on file; cited from earlier work
[14] = system: breast cancer resistance protein (BCRP); conditions: in vitro; data on file; cited from earlier work
CYP3A [15] = conditions: in vitro; cited from earlier work; remark: listed apart in the source
[16] = cited from earlier work; remark: listed apart in the source
CYP3A (intestinal) = conditions: cited from earlier work
[17] = system: CatA and carboxylesterase (CES) 1; conditions: cited from earlier work
CYP1A2 = conditions: caffeine; cited from earlier work
[18] = interim analysis, simeprevir 150 mg once daily
[19] = interim analysis, simeprevir 150 mg once daily, vs historical data on simeprevir alone
[20] = vs subjects with normal renal function
[21] = simeprevir 150 mg once daily + erythromycin 500 mg three times daily, days 1–7, fed, 24 healthy subjects
[22] = simeprevir 200 mg once daily + ritonavir 100 mg twice daily, fed, 12 healthy male subjects
[23] = oral midazolam 0.075 mg/kg, simeprevir 150 mg, fed, 16 healthy subjects, least squares mean ratio (90 % CI)

COc1ccc2c(O[C@@H]3C[C@H]4C(=O)N[C@]5(C(=O)NS(=O)(=O)C6CC6)C[C@H]5/C=C\CCCCN(C)C(=O)[C@@H]4C3)cc(-c3nc(C(C)C)cs3)nc2c1C [simeprevir]
inhibition of NTCP [1]: inhibitor | inhibition of cathepsin A (cathepsin A): no clinically relevant inhibition | AUC24h of simeprevir, historical data in the absence of cyclosporine [2]: 45,202 ng·h/mL | Cmax of simeprevir, historical data in the absence of cyclosporine [2]: 3235 ng/mL | AUC24h of simeprevir in subjects receiving cyclosporine ([2]; day 14, simeprevir 150 mg once daily): 262,618 ng·h/mL | Cmax of simeprevir in subjects receiving cyclosporine ([2]; day 14, simeprevir 150 mg once daily, n = 9): 15,321 ng/mL | AUC24h of simeprevir in subjects receiving tacrolimus [2, 18]: 83,808 ng·h/mL | Cmax of simeprevir in subjects receiving tacrolimus [2, 18]: 5780 ng/mL | increase in AUC24h of simeprevir with tacrolimus [2, 19]: 85% | increase in Cmax of simeprevir with tacrolimus [2, 19]: 79% | mean terminal elimination half-life ([3]; HCV-infected subjects (n = 6)): approximately 41 h | increase in AUC with food ([3]; high-fat/high-caloric breakfast): 61% | AUC in subjects infected with HCV relative to uninfected subjects ([3]; human, in vivo): 2–3 times | increase in exposure in moderate hepatic impairment ([3]; non-HCV-infected subjects vs matched healthy controls): approximately 2 fold | increase in exposure in severe compared with moderate hepatic impairment ([3]; non-HCV-infected subjects): approximately 2 fold | increase in AUC with food ([3]; normal-caloric breakfast): 69% | time to steady state ([3]; once-daily dosing): 7 days | time of maximum plasma concentration (Cmax) postdose ([3]; oral): 4 to 6 h | dose proportionality of Cmax and AUC ([3]; repeated doses between 75 mg and 200 mg daily): more than dose proportionally | mean terminal elimination half-life ([3]; subjects without HCV infection): 10 to 13 h | increase in AUC24h in severe renal impairment [3, 20]: 62% | increase in Cmax in severe renal impairment [3, 20]: 34% | bound to plasma proteins (plasma proteins): > 99.9% | inhibition of CYP2A6 (CYP2A6): moderate inhibitor | inhibition of CYP2C8 (CYP2C8): moderate inhibitor | inhibition of CYP2D6 (CYP2D6): moderate inhibitor | inhibition of CYP2C19 (CYP2C19): weak inhibitor | inhibition of CYP3A (CYP3A [4]): weak inhibitor | inhibition of OATP1B1 (OATP1B1 [5]): inhibitor | inhibition of MRP2 (MRP2 [6]): inhibitor | inhibition of BSEP [7]: inhibitor | inhibition of P-gp (P-gp [8]): inhibitor | inhibition of BCRP (BCRP): inhibitor | inhibition of OATP1B3 (OATP1B3 [9]): inhibitor | hepatic uptake by OATP1B1 (OATP1B1 [10]): mediate hepatic uptake | hepatic uptake by OATP1B3 (OATP1B3 [11]): mediate hepatic uptake | substrate of MRP2 (MRP2 [12]): substrate | substrate of P-gp (P-gp [13]): substrate | substrate of BCRP [14]: substrate | substrate of CYP3A (CYP3A [15]): substrate | fold increase in mean AUC24h of simeprevir with erythromycin [16, 21]: 7.47 fold | fold increase in mean Cmax of simeprevir with erythromycin [16, 21]: 4.53 fold | fold increase in mean Cmin of simeprevir with erythromycin [16, 21]: 12.74 fold | fold increase in AUC24h of simeprevir with ritonavir, multiple doses [16, 22]: 7.18 fold | fold increase in Cmax of simeprevir with ritonavir, multiple doses [16, 22]: 4.70 fold | fold increase in Cmin of simeprevir with ritonavir, multiple doses [16, 22]: 14.35 fold

Cc1ncc2n1-c1ccc(Cl)cc1C(c1ccccc1F)=NC2 [Midazolam, midazolam]
AUClast ratio of probe with vs without simeprevir (CYP3A (intestinal); [23]): 1.45 (1.35–1.57) | Cmax ratio of probe with vs without simeprevir (CYP3A (intestinal); [23]): 1.31 (1.19–1.45) | increase in exposure with coadministration of simeprevir (CYP3A (intestinal); oral midazolam): 31%

CC(C)OC(=O)[C@H](C)N[P@](=O)(OC[C@H]1O[C@@H](n2ccc(=O)[nH]c2=O)[C@](C)(F)[C@@H]1O)Oc1ccccc1 [sofosbuvir]
conversion to metabolite GS-331007 [17]: > 90%

Cn1c(=O)c2c(ncn2C)n(C)c1=O [Caffeine, caffeine]
increase in exposure with coadministration of simeprevir (CYP1A2): 12%
